The values that follow come from patent US20100160255A1, “SPIRO-CYCLIC COMPOUND” (Takeda Pharmaceutical Company Limited, priority 2005, published 2010).

The target in one experiment is T1, human ACC1 (Homo sapiens, UniProt Q13085).
T1 construct: made in house; host or cells: SF-9 insect cells, recombinant baculovirus BAC-ACC1
Briefly: ACC1 inhibitory activity (malachite green absorbance assay, recombinant enzyme). It is filed as biochemical.

Another experiment concerns the target T2, human ACC2 (Homo sapiens, UniProt O00763).
T2 construct: made in house; host or cells: SF-9 insect cells, recombinant baculovirus BAC-ACC2(Nd)
Briefly: ACC2 inhibitory activity (malachite green absorbance assay, recombinant ACC2(Nd)). It is filed as biochemical. As to the method:
The ACC2 inhibitory activity of the compound of the present invention was evaluated by the following method.
Human ACC2 gene was cloned by PCR using human skeletal muscle cDNA library (Clontech) as a template, and Primer 1 and Primer 2 shown below. Primer 1 and Primer 2 were prepared by adding recognition sequence of restriction enzymes SalI and XbaI based on the information of the base sequence (Genbank Accession U89344) of human ACC2 gene.
PCR was performed using Pyrobest DNA polymerase (TAKARA BIO INC.). The obtained PCR product was cloned to pT7 Blue vector (Novagen) which was, after confirmation of the base sequence, digested with restriction enzymes SalI and XbaI. The obtained DNA fragment was inserted into pFAST-BacHTa (Invitrogen) digested with restriction enzymes SalI and XbaI to give expression plasmid ACC2/pFAST-BacHTa.
A plasmid for expression of ACC2 free of mitochondrial targeting sequence was prepared by PCR using the expression plasmid as a template, and Primer 3 and Primer 4 shown below.
PCR was performed using Pyrobest DNA polymerase (TAKARA BIO INC.). The obtained PCR product was cloned to pT7 Blue vector (Novagen) which was, after confirmation of the base sequence, digested with restriction enzymes SalI and AflII. The obtained DNA fragment was inserted into pFAST-BacHTa (Invitrogen) digested with restriction enzymes SalI and AflII to give expression plasmid ACC2mito7/pFAST-BacHTa.
Using the expression plasmid and BAC-TO-BAC Baculovirus Expression System (Invitrogen), virus stock BAC-ACC2 of recombinant Baculovirus (N terminal deletion (hereinafter Nd)) was prepared.
SF-9 cells (Invitrogen) were sown at 0.5×10^6 cells/mL to insect cell culture medium (2 L, Sf-900II SFM medium (Invitrogen) containing 10% fetal bovine serum (Trace), 50 mg/L gentamicin (Invitrogen) and 0.1% Pluronic F-68 (Invitrogen)), and shaking culture was performed using a Wave Bioreactor (Wave) under the conditions of 27° C., 20 rpm, rocking angle of 6° and oxygen concentration of 30%.
On day 4 of the culture, 3 L of an insect cell culture medium was added, the rocking angle was set to 8°, and the cells were further cultured. On day 5 of the culture, the recombinant Baculovirus BAC-ACC2(Nd) (100 mL) was added, 5 L of the insect cell culture medium was further added, the rocking angle was set to 11°, and the cells were cultured for 3 days. The culture medium was centrifuged at 1000×g for 10 min to give virus-infected cells. The infected cells were washed with phosphate buffered saline (Invitrogen) and centrifuged under the same conditions, and the obtained cells were cryopreserved at −80° C.
The cryopreserved cells were thawed in ice, suspended in 25 mM HEPES buffer (900 mL, pH 7.5) containing 10% Glycerol, 0.13 M NaCl, 1 mM EDTA, 25 mM sodium β-glycerophosphate, 1 mM sodium orthovanadate, added with Complete Protease Inhibitor (Boehringer). The obtained suspension was homogenized 3 times with a Polytron homogenizer (Kinematica) at 20,000 rpm for 30 seconds. The obtained cell disrupt solution was clarified by centrifugation at 31000×g for 60 min and filtrated using a 0.45 μm filter. The filtrate was passed through a column packed with Ni-NTA Super Flow Gel (QIAGEN, 60 mL) at a flow rate of about 5 mL/min. The column was washed with buffer A (50 mM HEPES containing 0.3M NaCl, pH 7.5), further washed with buffer A containing 20 mM Imidazole, and eluted with buffer A containing 100 mM Imidazole. The eluate was concentrated with Vivaspin 20 (Vivascience) having a molecular weight cut off of 30 K. The obtained concentrate was dialyzed against 50 mM HEPES (pH7.5) containing 10 mM MgCl2, 2 mM dithiothreitol, 10 mM tripotassium citrate and 0.3M NaCl. The dialysate was filtered through a 0.22 μm filter to give ACC2(Nd). The obtained ACC2(Nd) was cryopreserved at −80° C. […]

Setting [1] is: Table 8, recombinant human ACC1, 30° C., absorbance 620 nm, read-out: IC50 (ACC1 inhibitory activity).
The mark [2] stands for this setting: Table 9, recombinant human ACC2(Nd), N terminal deletion, 30° C., absorbance 620 nm, read-out: IC50 (ACC2 inhibitory activity).
[3] abbreviates: Experimental Example 3, same manner as Experimental Example 1, read-out: IC50 values (ACC1 inhibitory activity).

Read-outs that look alike come from different tables or passages of the source. A value given as a limit tells only on which side of the number the result lay.

T2 sequence (O00763 117-2458 limits assumed): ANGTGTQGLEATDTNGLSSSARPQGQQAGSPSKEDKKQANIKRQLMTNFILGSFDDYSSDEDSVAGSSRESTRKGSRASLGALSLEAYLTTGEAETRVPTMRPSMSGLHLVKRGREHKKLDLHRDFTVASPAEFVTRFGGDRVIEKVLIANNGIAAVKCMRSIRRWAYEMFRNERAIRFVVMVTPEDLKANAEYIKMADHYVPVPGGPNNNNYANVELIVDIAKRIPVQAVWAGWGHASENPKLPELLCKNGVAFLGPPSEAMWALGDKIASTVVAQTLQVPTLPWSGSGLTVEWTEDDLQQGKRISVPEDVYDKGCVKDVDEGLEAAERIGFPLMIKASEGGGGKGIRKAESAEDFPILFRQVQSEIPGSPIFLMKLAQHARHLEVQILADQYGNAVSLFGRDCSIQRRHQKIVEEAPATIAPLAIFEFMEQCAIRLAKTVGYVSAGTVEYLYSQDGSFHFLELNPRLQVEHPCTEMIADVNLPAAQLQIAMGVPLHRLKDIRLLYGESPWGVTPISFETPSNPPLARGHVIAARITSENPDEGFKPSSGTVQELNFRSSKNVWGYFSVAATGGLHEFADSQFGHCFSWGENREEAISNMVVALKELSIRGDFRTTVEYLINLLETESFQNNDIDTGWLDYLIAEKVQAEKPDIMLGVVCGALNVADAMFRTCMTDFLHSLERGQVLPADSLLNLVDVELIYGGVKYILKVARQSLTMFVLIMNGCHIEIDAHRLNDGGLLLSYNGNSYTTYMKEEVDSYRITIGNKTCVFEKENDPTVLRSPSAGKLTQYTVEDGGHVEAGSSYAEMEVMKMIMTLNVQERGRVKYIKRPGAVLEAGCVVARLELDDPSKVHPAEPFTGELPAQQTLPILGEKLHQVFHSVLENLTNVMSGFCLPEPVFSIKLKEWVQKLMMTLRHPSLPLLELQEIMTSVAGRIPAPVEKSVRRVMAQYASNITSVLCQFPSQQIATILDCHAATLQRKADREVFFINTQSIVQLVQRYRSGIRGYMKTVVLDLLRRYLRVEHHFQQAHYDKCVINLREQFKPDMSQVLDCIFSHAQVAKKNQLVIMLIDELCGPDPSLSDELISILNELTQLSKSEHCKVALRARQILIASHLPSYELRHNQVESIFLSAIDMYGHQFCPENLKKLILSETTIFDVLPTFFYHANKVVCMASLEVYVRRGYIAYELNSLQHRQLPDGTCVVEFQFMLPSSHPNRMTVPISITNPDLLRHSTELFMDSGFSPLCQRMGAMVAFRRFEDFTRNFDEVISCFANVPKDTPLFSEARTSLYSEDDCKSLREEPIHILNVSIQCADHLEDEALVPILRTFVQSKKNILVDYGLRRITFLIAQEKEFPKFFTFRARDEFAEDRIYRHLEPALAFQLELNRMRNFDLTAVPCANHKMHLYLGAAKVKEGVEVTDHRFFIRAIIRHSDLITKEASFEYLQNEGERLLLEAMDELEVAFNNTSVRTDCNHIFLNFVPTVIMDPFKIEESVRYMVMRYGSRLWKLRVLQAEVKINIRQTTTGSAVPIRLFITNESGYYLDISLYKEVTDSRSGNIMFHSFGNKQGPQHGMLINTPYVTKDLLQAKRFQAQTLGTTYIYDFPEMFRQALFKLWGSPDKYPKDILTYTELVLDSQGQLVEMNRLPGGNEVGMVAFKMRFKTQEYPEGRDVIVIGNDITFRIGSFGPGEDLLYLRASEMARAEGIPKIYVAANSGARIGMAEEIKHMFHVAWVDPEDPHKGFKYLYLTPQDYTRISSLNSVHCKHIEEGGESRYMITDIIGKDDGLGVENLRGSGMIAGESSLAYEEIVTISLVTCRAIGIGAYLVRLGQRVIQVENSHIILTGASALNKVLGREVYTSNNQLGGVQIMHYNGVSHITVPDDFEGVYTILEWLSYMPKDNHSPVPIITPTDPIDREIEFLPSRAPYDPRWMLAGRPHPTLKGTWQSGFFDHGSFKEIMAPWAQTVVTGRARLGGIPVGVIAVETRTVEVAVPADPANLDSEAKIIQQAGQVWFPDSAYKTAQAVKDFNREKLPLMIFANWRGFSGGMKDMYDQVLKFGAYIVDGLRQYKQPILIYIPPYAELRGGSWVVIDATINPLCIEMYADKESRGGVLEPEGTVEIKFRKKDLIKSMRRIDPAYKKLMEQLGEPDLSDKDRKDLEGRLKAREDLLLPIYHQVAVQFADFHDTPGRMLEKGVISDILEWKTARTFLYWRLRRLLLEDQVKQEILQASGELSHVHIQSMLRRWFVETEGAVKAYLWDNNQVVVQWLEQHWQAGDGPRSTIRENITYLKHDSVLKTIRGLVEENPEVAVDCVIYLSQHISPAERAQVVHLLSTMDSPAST

Broadly, the IC50 is the concentration that gives 50% inhibition. Turning to `CC(C)N1C(=O)CC2(CCCN(C3CCN(C(=O)c4c(NC(N)=O)sc5ccccc45)CC3)C2)C1=O` (centres unmarked) [Example 366, N-(3-{[4-(2-isopropyl-1,3-dioxo-2,7-diazaspiro[4.5]dec-7-yl)piperidin-1-yl]carbonyl}-1-benzothien-2-yl)urea], the IC50 at human ACC1 (setting [1]) came out at 0.18 µM; at human ACC2 (setting [2]), 0.018 µM.
In the same order, the values of `CCNC(=O)Nc1sc2ccccc2c1C(=O)N1CCC(N2CCCC3(CC(=O)N(C)C3=O)C2)CC1` (centres unmarked) [Example 380, N-ethyl-N′-(3-{[4-(2-methyl-1,3-dioxo-2,7-diazaspiro[4.5]dec-7-yl)piperidin-1-yl]carbonyl}-1-benzothien-2-yl)urea] are 0.21 µM and 0.045 µM.
In the same order, the values of `CC(C)NC(=O)Nc1sc2ccccc2c1C(=O)N1CCC(N2CCCC3(CC(=O)NC3=O)C2)CC1` (centres unmarked) [Example 397, N-(3-{[4-(1,3-dioxo-2,7-diazaspiro[4.5]dec-7-yl)piperidin-1-yl]carbonyl}-1-benzothien-2-yl)-N′-isopropylurea] are 0.22 µM and 0.039 µM.
As for `CCNC(=O)Nc1sc2ccccc2c1C(=O)N1CCC(N2CCCC3(CCN(CC)C3=O)C2)CC1` (centres unmarked) [Example 400, N-ethyl-N′-(3-{[4-(2-ethyl-1-oxo-2,7-diazaspiro[4.5]dec-7-yl)piperidin-1-yl]carbonyl}-1-benzothien-2-yl)urea], the IC50 on human ACC1 (setting [3]) is ≤ 0.1 µM; at human ACC1 (setting [1]), 0.097 µM; at human ACC2 (setting [2]) it was 0.013 µM.
In the same order, the values of `CCNC(=O)Nc1sc2ccccc2c1C(=O)N1CCC(N2CCCC3(C2)N=C(C)N(CC)C3=O)CC1` (centres unmarked) [Example 401, 1-ethyl-3-(3-{[4-(3-ethyl-2-methyl-4-oxo-1,3,7-triazaspiro[4.5]dec-1-en-7-yl)piperidin-1-yl]carbonyl}-1-benzothien-2-yl)urea] are ≤ 0.1 µM, 0.073 µM and 0.015 µM.
For the compound `CCNC(=O)Nc1sc2c(c1C(=O)N1CCC(N3CCCC4(C3)OC(=O)N(C(C)(C)C)C4=O)CC1)CCCC2=O` (centres unmarked) [Example 420, N-(3-{[4-(3-tert-butyl-2,4-dioxo-1-oxa-3,7-diazaspiro[4.5]dec-7-yl)piperidin-1-yl]carbonyl}-7-oxo-4,5,6,7-tetrahydro-1-benzothien-2-yl)-N′-ethylurea], the IC50 at human ACC1 (setting [3]) was ≤ 0.1 µM; on human ACC2 (Experimental Example 4, same manner as Experimental Example 2, read-out: IC50 values (ACC2 inhibitory activity)), ≤ 0.01 µM.
